From PMC6696338, “Pharmacokinetic and Metabolism Studies of Monomethyl Auristatin F via Liquid Chromatography-Quadrupole-Time-of-Flight Mass Spectrometry” (Molecules, 2019)
Non-standard residues stand in square brackets, D forms with d. Residues, ends and D or L forms follow the SMILES beside them. Dolaproine = CO[C@@H]([C@@H]1CCCN1)[C@@H](C)C(=O)O; Dil = CC[C@H](C)[C@H](NC)[C@@H](CC(=O)O)OC; NMeV = CN[C@H](C(=O)O)C(C)C

Legend:
[1] = Pharmacokinetic study of MMAF in rat (IV and PO), plasma by LC-TOF-MS/MS; assay type: in vivo; settings: male SD rat
Experimental: Twenty microliters of rat plasma samples were placed in a cluster tube. Four microliters (make-up solution) of DMSO were added to the cluster tube, and 100 μL of ACN was also added. The mixture was capped and vortexed, and then centrifuged for 5 min at 12,000 rpm (4 °C). Following the centrifugation, 70 μL supernatant was transferred to an LC vial and diluted by adding 140 μL of DW.
(§1) LC-TOF-MS/MS was consisted of a Shimadzu CBM-20A/LC-20AD chromatographic system (Shimadzu Scientific Instruments, Columbia, MD, USA), with an eksigent CTC HTS PAL auto-sampler (Sciex, Redwood City, CA, USA) and a quadrupole time-of-flight TripleTOF 5600 mass spectrometer (Sciex, Redwood City, CA, USA). Kinetex XB-C18 column (2.1 × 50 mm, Phenomenex) for quantification and Kinetex XB-C18 column (2.1 × 100 mm, Phenomenex) for metabolite profiling studies were used as analytical columns. The LC mobile phase consisted of DW containing 0.1% formic acid (phase A) and ACN containing 0.1% formic acid (phase B). The flow rate was 0.4 mL/min for quantification and 0.3 mL/min for Met ID while maintaining the column temperature at 55 °C. Injection volume was 10 μL.
(1) Quantification: For TOF-MS/MS scan, the scan range was m/z 100~900. The protonated [M + H]^+ ion of MMAF (m/z 732.5) was used and its product ions at m/z 700.5 and m/z 520.3 were selected as the quantitative ion and the qualitative ion, respectively. The source temperature was set at 500 °C. The curtain gas flow was set at 30 L/min. The ion spray voltage (IVSF) was set at 5500 V. The declustering potential (DP) was 100 V, and the collision energy (CE) was 36 V.
Data acquisition and LC-MS/MS operation were conducted using Analyst® TF Version 1.6 (Sciex, Redwood City, CA, USA). MultiQuant® Version 2.1.1 (Sciex, Redwood City, CA, USA) was used for peak integration for MMAF quantification. The descriptive statistics for the qualification studies were calculated with Excel 2015 (Microsoft, Seoul, Korea). Pharmacokinetic parameters were calculated in a non-compartmental analysis using WinNonlin® version 8.0.0 (Certara, Princeton, NJ, USA). PeakView® Version 2.2 (Sciex, Redwood City, CA, USA) and MetabolitePilot^TM Version 2.0.2 (Sciex, Redwood City, CA, USA) were used for the structural elucidation of metabolites. MedChem Designer (Simulations Plus, Inc, Lancaster, CA, USA) was used for in silico metabolite prediction.
Male Sprague-Dawley (SD) rats were used for rat PK studies of MMAF. For rat PK studies of MMAF, rats were distributed into two different groups (5 mg/kg IV (intravenous) group and 10 mg/kg PO (oral) group). After IV or PO dose, blood samples were collected to heparinized tubes and centrifuged immediately at 10,000 rpm for 5 min. The sampling times were 0, 2, 5, 15, 30, 60, 90, 120, 240, 360, and 1440 min for IV PK and 0, 5, 15, 30, 60, 90, 120, 240, 360, and 1440 min for PO PK. The supernatant was transferred to a clean tube and stored at −80 °C until analysis.

[2] = Preliminary stability tests of MMAF in rat plasma; assay type: in vitro ADME; settings: for Short-term stability, mean concentration / Short-term stability, accuracy %: RT, 4 h; for Short-term stability, accuracy % / Long-term stability, accuracy % / Freeze-thaw stability, accuracy %: n = 3; for Freeze-thaw stability, accuracy %: three cycles
Experimental: Preliminary stability tests were performed in rat plasma under 4 different conditions, including short-term, freeze-thaw, long-term, and post-preparative stability. The short-term stability was assessed at room temperature (RT) for 4 hrs. The long-term stability was assessed by comparing the freshly prepared control samples to the samples kept frozen for 4 weeks at −80 °C. For the freeze-thaw stability, the stability-test samples were subjected to three freeze and thaw cycles at −80 °C. The post-preparative stability was assessed for the QC samples kept in an auto-sampler (10 °C) for 12 hrs.
The acceptance criteria for all of the qualification were within ±15% of the precision and accuracy.

[3] = In vitro metabolite profiling in rat liver microsome; assay type: in vitro ADME; settings: 90 min, 37 °C
Text: as §1
(§2) (2) Metabolite profiling: The mass spectrometric conditions for the metabolite profiling of MMAF were as follows. The information-dependent analysis (IDA) with high-resolution TOF full scan was operated with electrospray ionization (ESI) in positive ion mode using real-time multiple mass defect filtering (MDF) and dynamic background subtraction. The IDA method consisted of TOF scan (m/z 50 to 1200) for the detection of MMAF and its metabolites. The method was followed by 6 TOF-MS/MS dependent scans (m/z 50 to 1200) for structural elucidation. […]

[4] = In vitro metabolite profiling in human liver microsome; assay type: in vitro ADME; settings: 90 min, 37 °C
Text: as §1, §2

[5] = qualitative comparison; cited from earlier work
Text: Auristatin is a microtubule-destroying drug. It was derived from marine shell-less mollusk Dolabella auricularia called dolastatins (Figure 1). After the dolastatin was found, it has been studied in the treatment of cancer, malaria, and fungus. After the successful total synthesis of dolastatin 10, various derivatives have been synthesized, such as monomethyl auristatin E (MMAE) and monomethyl auristatin F (MMAF). MMAE and MMAF were developed by Seattle Genetics and used as payloads for ADC. MMAF and MMAE have their advantages and disadvantages. MMAE is m ...

[6] = processed rat plasma QC in auto-sampler, 10 °C, high QC
[7] = processed rat plasma QC in auto-sampler, 10 °C, low QC

In the case of CC[C@H](C)[C@@H]([C@@H](CC(=O)N1CCC[C@H]1[C@H](OC)[C@@H](C)C(=O)N[C@@H](Cc1ccccc1)C(=O)O)OC)N(C)C(=O)[C@@H](NC(=O)[C@@H](NC)C(C)C)C(C)C [MMAF, monomethyl auristatin F] (H-[NMeV]V[Dil][Dolaproine]F-OH), the clearance ([1]; Sprague-Dawley, plasma, IV 5 mg/kg, non-compartmental analysis, read-out: Clearance (CL)) is reported as 77.3 mL/min/kg, the Vd ([1]; Sprague-Dawley, plasma, IV 5 mg/kg, non-compartmental analysis, read-out: Vss) is reported as 1.06 L/kg and the AUC(0-t) ([1]; Sprague-Dawley, IV 5 mg/kg, plasma, non-compartmental analysis) is reported as 1090 ng·h/mL. The Cmax ([1]; Sprague-Dawley, IV 5 mg/kg, plasma, non-compartmental analysis, LC-TOF-MS/MS) was 8280 ng/mL, the Bioavailability ([1]; PO 10 mg/kg vs IV 5 mg/kg) was 0% and the “Systemic exposure after oral dosing” value ([1]; PO 10 mg/kg, plasma) was “no systemic exposure was observed”. The “Post-preparative stability, area ratio after 12 h as % of first injection” value [2, 6] was 99.98%, the “Post-preparative stability, area ratio of 10th injection (after 12hr)” value [2, 6] was 7.43 and the “Post-preparative stability, area ratio after 12 h as % of first injection” value [2, 7] was 97.93%. For the same compound, the “Post-preparative stability, area ratio of 10th injection (after 12hr)” value [2, 7] was 0.61, the “Post-preparative stability, area ratio of 1st injection” value [2, 6] was 7.43 and the “Short-term stability, mean concentration” value ([2]; rat plasma, high QC 1820 ng/mL, LC-TOF-MS/MS, mean of n = 3) was 1884.23 ng/mL. The “Short-term stability, accuracy %” value ([2]; rat plasma, high QC 1820 ng/mL) was 103.53%, the “Short-term stability, mean concentration” value ([2]; rat plasma, low QC 165.46 ng/mL, LC-TOF-MS/MS, mean of n = 3) was 149.90 ng/mL and the “Short-term stability, accuracy %” value ([2]; rat plasma, low QC 165.46 ng/mL) was 90.60%. For the same compound, the “Long-term stability, mean concentration” value ([2]; rat plasma, −80 °C, 4 weeks, high QC 1820 ng/mL, LC-TOF-MS/MS, mean of n = 3) was 1657.96 ng/mL, the “Long-term stability, accuracy %” value ([2]; rat plasma, −80 °C, 4 weeks, high QC 1820 ng/mL) was 91.10% and the “Long-term stability, accuracy %” value ([2]; rat plasma, −80 °C, 4 weeks, low QC 165.46 ng/mL) was 95.46%. The “Freeze-thaw stability, accuracy %” value ([2]; rat plasma, −80 °C, high QC 1820 ng/mL) was 91.10%, the “Freeze-thaw stability, accuracy %” value ([2]; rat plasma, −80 °C, low QC 165.46 ng/mL) was 95.46% and the “Stability in rat plasma (in words)” value ([2]; short-term, long-term, freeze/thaw and post-preparative conditions, acceptance ±15%) was “stable”. For the same compound, the “Number of metabolites tentatively identified” value [3] was “four”, the “Number of metabolites tentatively identified” value [4] was “seven” and the “Aggregation tendency relative to MMAE” value [5] was “lower aggregation tendency”. The “Hydrophilicity relative to MMAE” value [5] was “more hydrophilic” and the “Systemic toxicity relative to MMAE” value [5] was “lower systemic toxicity”.

In the case of monomethyl auristatin E [MMAE], the “IC50 relative to MMAF” value [5] is listed as “lower IC50 than MMAF” and the “Membrane permeability relative to MMAF” value [5] is listed as “more membrane-permeable”.
